Reference: patent publication US20160279076A1, “METHODS FOR IMPROVEMENT OF VISUAL FUNCTION AND COMPOSITIONS USED THEREIN” (priority 2015, published 2016)

Tested on: ARPE-19 cells
Assay: Gene expression analysis in ARPE-19 cells after lutein pretreatment and UV exposure
Type: cell-based, human
Details: for Down-regulated genes expression / Up-regulated genes expression: 10 μM lutein 24 hour pretreatment
Method: Retinal pigment epithelial (RPE) cells play a key protective role by shielding retina from damaging UV rays and are used as a model to study the effect of macular carotenoids. In this study, a human RPE cell line (ARPE-19 cells were acquired from American Type Culture Collection (ATCC)) was either treated with placebo or treated with macular carotenoids alone or in combination for 24 hours prior to UV exposure. Cells were maintained for another 18 hours, then harvested for gene expressions. In another study, acetylcholinesterase and catalase activities in the presence of macular carotenoids were tested.
According to Study 1, Cell line ARPE-19 was subjected to 24 hour pretreatment with 10 μM lutein, followed by exposure to UV radiation of 1 J/m^2 for 7 seconds.
According to Study 2, Cell line ARPE-19 was subjected to 24 hour pretreatment with 10 μM lutein, followed by exposure to UV radiation of 300 J/m^2 for 10 minutes.
Gene expression analysis was carried out in response to UV exposure and macular carotenoid administration.

CC1=C[C@H](O)CC(C)(C)[C@H]1/C=C/C(C)=C/C=C/C(C)=C/C=C/C=C(C)/C=C/C=C(C)/C=C/C1=C(C)C[C@@H](O)CC1(C)C [Lutein, lutein]
Down-regulated genes expression (with UV exposure): inhibits inflammation
Up-regulated genes expression (with UV exposure): inhibits oncogenesis and growth factor tumor suppressors
Down-regulated genes expression (without UV exposure): inhibits DNA damage and inflammation
Up-regulated genes expression (without UV exposure): inhibits oncogenesis and inflammation
Gene expression analysis, overall role for vision health (ARPE-19 cells, UV irradiation): plays a protective role for vision health
